One may read the IC50 as the concentration needed to halve the response being measured. Read a low IC50 as greater potency in that assay. What is called EC50 is the concentration at which the effect is half-maximal. Lower therefore signals a more potent agent.

14 compounds from ChEMBL document CHEMBL1137945, “Design, synthesis, and activity of HDAC inhibitors with a N-formyl hydroxylamine head group” (Bioorg Med Chem Lett, 2004) can be followed below.

For one experiment, the target named is Histone deacetylase. The experiment is described as follows: Inhibition of Histone deacetylase (HDAC)of HeLa nuclear extracts. Format: protein assay, Homo sapiens.
A further experiment has as its target Histone deacetylase 2 (Homo sapiens, UniProt Q92769). The experiment is described as follows: Inhibition of Histone deacetylase 2 (HDAC2) activity of HeLa nuclear extracts.
Another experiment concerns the target T1, Histone deacetylase 8 (Homo sapiens, UniProt Q9BY41).
T1 sequence (Q9BY41 whole entry): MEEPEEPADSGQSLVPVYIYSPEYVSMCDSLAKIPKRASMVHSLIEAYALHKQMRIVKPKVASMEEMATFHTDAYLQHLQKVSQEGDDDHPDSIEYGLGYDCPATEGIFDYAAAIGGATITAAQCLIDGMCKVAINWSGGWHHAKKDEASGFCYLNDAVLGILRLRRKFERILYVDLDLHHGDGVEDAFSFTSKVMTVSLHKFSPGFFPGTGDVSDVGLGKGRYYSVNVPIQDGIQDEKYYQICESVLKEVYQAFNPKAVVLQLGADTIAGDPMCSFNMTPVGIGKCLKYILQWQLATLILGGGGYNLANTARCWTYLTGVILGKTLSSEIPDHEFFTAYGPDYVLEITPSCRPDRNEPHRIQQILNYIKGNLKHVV

The target of experiment [1] is T2, Protein deacetylase HDAC6 (Homo sapiens, UniProt Q9UBN7).
T2 sequence (Q9UBN7 whole entry): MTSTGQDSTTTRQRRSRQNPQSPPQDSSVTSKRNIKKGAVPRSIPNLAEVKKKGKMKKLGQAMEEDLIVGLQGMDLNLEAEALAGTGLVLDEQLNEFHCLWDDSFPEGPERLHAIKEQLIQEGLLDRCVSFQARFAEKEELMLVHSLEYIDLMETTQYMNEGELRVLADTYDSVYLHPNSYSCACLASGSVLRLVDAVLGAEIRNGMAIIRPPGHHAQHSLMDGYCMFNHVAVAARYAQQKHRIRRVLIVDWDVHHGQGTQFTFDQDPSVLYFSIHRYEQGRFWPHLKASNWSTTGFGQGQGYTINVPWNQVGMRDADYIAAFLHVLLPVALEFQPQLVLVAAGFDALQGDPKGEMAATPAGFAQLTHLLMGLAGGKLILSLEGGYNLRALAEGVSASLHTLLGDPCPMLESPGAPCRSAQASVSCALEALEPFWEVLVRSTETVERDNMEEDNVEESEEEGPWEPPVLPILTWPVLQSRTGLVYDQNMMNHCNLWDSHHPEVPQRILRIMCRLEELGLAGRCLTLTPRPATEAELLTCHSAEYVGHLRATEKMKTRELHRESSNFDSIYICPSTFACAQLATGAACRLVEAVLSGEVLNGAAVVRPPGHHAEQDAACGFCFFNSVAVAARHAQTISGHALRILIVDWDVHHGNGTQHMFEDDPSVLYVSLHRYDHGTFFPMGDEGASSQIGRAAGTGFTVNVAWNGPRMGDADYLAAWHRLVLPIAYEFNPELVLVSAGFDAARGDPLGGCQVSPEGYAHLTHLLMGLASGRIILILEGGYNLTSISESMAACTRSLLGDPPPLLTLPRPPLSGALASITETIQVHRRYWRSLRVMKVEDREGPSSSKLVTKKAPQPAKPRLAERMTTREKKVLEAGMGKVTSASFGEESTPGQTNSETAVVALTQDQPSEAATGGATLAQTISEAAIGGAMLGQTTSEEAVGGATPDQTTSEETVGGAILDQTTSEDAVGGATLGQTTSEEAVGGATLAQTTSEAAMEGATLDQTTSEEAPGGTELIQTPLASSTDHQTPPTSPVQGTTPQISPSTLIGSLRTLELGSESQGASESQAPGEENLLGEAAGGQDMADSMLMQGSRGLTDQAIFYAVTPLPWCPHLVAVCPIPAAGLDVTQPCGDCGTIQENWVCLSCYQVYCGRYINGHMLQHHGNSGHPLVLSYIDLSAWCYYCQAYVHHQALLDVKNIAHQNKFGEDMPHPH
Description: Inhibition of Histone deacetylase 6 (HDAC6) of HeLa nuclear extracts

A further experiment addresses Histone deacetylase 1 (Homo sapiens, UniProt Q13547).
Another experiment has as its system Jurkat. The experiment is described as follows: Compound was tested for anti-proliferative activity in Jurkat human leukemia cell line. Type of experiment: functional, cell-based.
For a further experiment, the system named is U-937. The experiment is described as follows: Compound was tested for anti-proliferative activity in U-937 human leukemia cell line. Format: functional, cell-based.
A further experiment is filed under the species Homo sapiens. The experiment can be described thus: Compound was tested for anti-proliferative activity in human hepatocytes. Type of experiment: functional, organism-based. As to conditions: Hepatocyte.
Experiment [2] can be described thus: Activity in histone hyperacetylation assay in cells. Format: functional.
Experiment [3] concerns bone marrow cells (Homo sapiens). The experiment can be described thus: cells.

Sequence of Histone deacetylase 1 (Q13547 whole entry): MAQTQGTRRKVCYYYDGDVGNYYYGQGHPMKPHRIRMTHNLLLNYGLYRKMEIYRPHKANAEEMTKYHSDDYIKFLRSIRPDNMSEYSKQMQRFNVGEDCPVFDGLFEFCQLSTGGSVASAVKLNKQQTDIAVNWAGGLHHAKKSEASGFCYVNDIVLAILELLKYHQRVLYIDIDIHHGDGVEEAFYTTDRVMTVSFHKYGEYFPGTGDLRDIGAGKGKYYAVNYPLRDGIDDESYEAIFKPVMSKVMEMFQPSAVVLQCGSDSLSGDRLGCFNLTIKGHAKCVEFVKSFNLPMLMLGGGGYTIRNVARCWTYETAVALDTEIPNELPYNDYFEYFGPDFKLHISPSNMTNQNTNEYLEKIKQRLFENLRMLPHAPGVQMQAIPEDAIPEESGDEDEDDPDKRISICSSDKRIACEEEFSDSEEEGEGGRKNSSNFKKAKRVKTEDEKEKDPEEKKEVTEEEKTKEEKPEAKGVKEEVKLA
Sequence of Histone deacetylase 2 (Q92769 whole entry): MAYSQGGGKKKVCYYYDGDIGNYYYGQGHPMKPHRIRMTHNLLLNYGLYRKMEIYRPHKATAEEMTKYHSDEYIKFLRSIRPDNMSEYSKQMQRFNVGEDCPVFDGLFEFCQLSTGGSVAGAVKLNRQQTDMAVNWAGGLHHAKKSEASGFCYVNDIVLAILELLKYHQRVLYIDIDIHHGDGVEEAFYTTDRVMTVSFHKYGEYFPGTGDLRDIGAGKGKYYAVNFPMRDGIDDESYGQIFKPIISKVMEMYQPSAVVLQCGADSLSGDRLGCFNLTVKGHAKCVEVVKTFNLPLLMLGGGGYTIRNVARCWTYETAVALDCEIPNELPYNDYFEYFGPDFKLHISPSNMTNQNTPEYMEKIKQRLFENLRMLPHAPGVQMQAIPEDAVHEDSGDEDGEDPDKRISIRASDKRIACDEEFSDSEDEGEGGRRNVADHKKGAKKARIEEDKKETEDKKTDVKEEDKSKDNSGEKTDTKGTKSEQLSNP
Description for Histone deacetylase 1: Inhibition of Histone deacetylase 1 (HDAC1) of HeLa nuclear extracts
Description for Histone deacetylase 8: Inhibition of Histone deacetylase 8 (HDAC8) of HeLa nuclear extracts

On to `O=CN(O)CCCCCCCC(=O)Nc1cccc2ccccc12`, for which the IC50 on Histone deacetylase came out at 50 µM; against Histone deacetylase 2 it was 5.9 µM; against Histone deacetylase 8, 0.65 µM; in experiment [1] it was 3.1 µM; against Histone deacetylase 1 it was 5.7 µM.

For the compound `COC(=O)N(O)CCCCCCC(=O)Nc1ccccc1`, the IC50 (against Histone deacetylase 2; on Histone deacetylase 8; in experiment [1]) was over 100 µM throughout.

Regarding `CC(=O)N(O)CCCCCC(=O)Nc1ccccc1`, the IC50 (at Histone deacetylase; against Histone deacetylase 2; against Histone deacetylase 8; in experiment [1]) was over 100 µM throughout.

As for `CC(=O)N(O)CCCCCCCC(=O)Nc1ccccc1`, the IC50 (at Histone deacetylase 2; against Histone deacetylase 8; in experiment [1]) was over 100 µM throughout.

As for `O=CN(O)CCCCCCCC(=O)Nc1ccccc1`, the IC50 came out at 7.8 µM against Histone deacetylase 2, 2.8 µM against Histone deacetylase 8 and 5.5 µM in [1].

On to `O=CN(O)CCCCCCC(=O)Nc1ccccc1`, for which the IC50 against Histone deacetylase 2 is 11 µM; against Histone deacetylase 8, 4 µM.

In the case of `O=CN(O)CCCCCC(C(=O)Nc1cnc2ccccc2c1)C(=O)Nc1cnc2ccccc2c1`, the IC50 at Histone deacetylase came to 0.97 µM; at Histone deacetylase 2, 0.2 µM; on Histone deacetylase 8 it was 0.69 µM; in [1], 0.78 µM; against Histone deacetylase 1, 0.16 µM. Also, the EC50 with Jurkat is 11 µM; with U-937 it was 40 µM; in the experiment listed under Homo sapiens, 41 µM; in experiment [2], 5.1 µM; in experiment [3] it was 78 µM.

For the compound `O=CN(O)CCCCCC(=O)Nc1ccccc1`, the figures for the IC50 (at Histone deacetylase 2; at Histone deacetylase 8; in [1]) were 19 µM, 6.8 µM and 2.8 µM, respectively.

`O=CN(O)CCCCCNC(=O)CCc1ccccc1`: the IC50 against Histone deacetylase was over 100 µM; against Histone deacetylase 2 it was 41 µM; at Histone deacetylase 8, 9.7 µM; in [1], 30 µM; against Histone deacetylase 1 it was 49 µM.

On to `O=CN(O)CCCCCCCC(=O)Nc1ccc2ccccc2c1`, for which the IC50 against Histone deacetylase was determined as 4 µM; at Histone deacetylase 2, 0.89 µM; at Histone deacetylase 8 it was 0.78 µM; in experiment [1], 0.91 µM; against Histone deacetylase 1, 0.81 µM.

Take `O=CN(O)CCCCCC(C(=O)Nc1ccc2ncccc2c1)C(=O)Nc1ccc2ncccc2c1`: the IC50 at Histone deacetylase was determined as 0.75 µM; against Histone deacetylase 2, 0.27 µM; against Histone deacetylase 8 it was 0.8 µM; in experiment [1], 0.62 µM; on Histone deacetylase 1 it was 0.18 µM. Moreover, the EC50 with Jurkat is 31 µM; with U-937, 100 µM; in the experiment filed under Homo sapiens, over 500 µM; in [2] it was 10 µM; in experiment [3], 130 µM.

`O=CN(O)CCCCCNC(=O)c1ccccc1`: the IC50 was over 100 µM at Histone deacetylase; 26 µM at Histone deacetylase 2; 22 µM against Histone deacetylase 8; 4.3 µM in experiment [1]; 30 µM on Histone deacetylase 1.

For the compound `O=CN(O)CCCCCNC(=O)c1ccc2ccccc2c1`, the IC50 on Histone deacetylase turned out to be 4.4 µM; at Histone deacetylase 2 it was 1.4 µM; on Histone deacetylase 8 it was 7 µM; in [1], 0.6 µM; against Histone deacetylase 1, 1.3 µM.

With `O=C(CCCCCCC(=O)Nc1ccccc1)NO` [VORINOSTAT], the results for the EC50 in the experiment with Jurkat and with U-937 were 2.3 µM and 33 µM, respectively.
